Patent US8338619B2, “Crystalline form of the zoledronic acid, a process to obtain it and the pharmaceutical composition comprising it” (Gador S.A., priority 2005, dated 2012)

Experiment: TGA Kinetics Analysis of dehydration (constant heating rate thermogravimetry, ASTM E1641)
Type: physicochemical
Protocol: In this Example, thermogravimetric analysis (TGA) is used as an analytical methodology to quantify the thermal stability parameters of solid chemicals. The data generated from these measurements is analyzed to obtain Arrhenius kinetic parameters such us activation energy (Ea) and preexponential factor. The activation energies of two different hydrates—zoledronic acid monohydrate and trihydrate—is obtained to analyze the dehydration reaction of these two forms to anhydrous form so that the their relative solid-state thermal stability can be ranked based on their activation energy values.
Thermogravimetric analysis (TGA) is a thermal analysis technique which measures the amount and rate of change on the weight of a material as a function of temperature or time in a controlled atmosphere. TGA measurements are used primarily to determinate the composition of materials and to predict their thermal stability up to elevate temperatures. However, with proper experimental procedures, additional information about the kinetics of decomposition and in-use lifetime predictions can be obtained.
TGA Kinetics Analysis method covers determination of the kinetic parameters, Arrhenius activation energy preexponential factor by thermogravimetry, based on the assumption that the decomposition to obeys first-order kinetics.
This program utilizes data gathered by running a sample at various heating rates. […]

| Compound | Activation energy (dehydration to anhydrous form) (at 50.0 percent of conversion level, TGA at 5, 10 and 20° C./min from 25 to 200° C., dry nitrogen purge, Monohydrate) [kcal/mol] | solid-state kinetic thermal stability (relative ranking from activation energy) (trihydrate vs monohydrate) |
| --- | --- | --- |
| O=P(O)(O)C(O)(Cn1ccnc1)P(=O)(O)O [Zoledronic acid monohydrate, Zoledronic Acid Monohydrate] | 36.33 | – |
| O=P(O)(O)C(O)(Cn1ccnc1)P(=O)(O)O [Zoledronic acid trihydrate, Zoledronic Acid Trihydrate] | – | greater than monohydrate form |
